Measured values as given in publication PMC3599939 (BMC Infectious Diseases, 2013).

Tested on: influenza virus neuraminidase (NA)
Format: biochemical

CCOC(=O)C1=C[C@@H](OC(CC)CC)[C@H](NC(C)=O)[C@@H](N)C1 [Oseltamivir, oseltamivir]
Phenotype (S/R): R and S
sensitivity of viruses to Oseltamivir: sensitive
